From US9510598B2, “Nitrogen-containing heterocyclic compounds for plant disease control” (BAYER CROPSCIENCE AG, priority 2012, dated 2016)
“And” between values parts separate entries of the source, which are not always exact repeats. Equal values may be shown once. Read-outs that look alike come from different tables or passages of the source.

What was measured:
Botrytis cinerea = assay: In vivo preventive test on Botrytis cinerea (grey mould); settings: 500 ppm; gherkin plants sprayed 24 hours before contamination; grading 4-5 days after contamination vs control plants
Experimental: Gherkin plants (“Vert petit de Paris” variety), sown in starter cups on a 50/50 peat soil-pozzolana substrate and grown at 24° C., are treated at the Z11 cotyledon stage by spraying with the active ingredient prepared as described above. Plants, used as controls, are treated with the mixture of acetone/tween/DMSO/water not containing the active material. After 24 hours, the plants are contaminated by spraying the cotyledons with an aqueous suspension of cryopreserved Botrytis cinerea spores (50 000 spores per ml). The spores are suspended in a nutrient solution composed of 10 g/L of PDB, 50 g/L of D-Fructose, 2 g/L of NH4NO3 and 1 g/L of KH2PO4. The contaminated gherkin plants are incubated at 17° C. and at 80% relative humidity. Grading (% of efficacy) is carried out 4-5 days after the contamination, in comparison with the control plants.

Sphaerotheca fuliginea = assay: In vivo preventive test on Sphaerotheca fuliginea (powdery mildew on cucurbits); settings: 500 ppm; gherkin plants sprayed 24 hours before contamination; grading 12 days after contamination vs control plants
Experimental: Gherkin plants (“Vert petit de Paris” variety), sown in starter cups on a 50/50 peat soil-pozzolana substrate and grown at 24° C., are treated at the Z11 cotyledon stage by spraying with the active ingredient prepared as described above. Plants, used as controls, are treated with the mixture of acetone/tween/DMSO/water not containing the active material. After 24 hours, the plants are contaminated by spraying the cotyledons with an aqueous suspension of Sphaerotheca fuliginea spores (100 000 spores per ml). The spores are collected from infected plants. […] Grading (% of efficacy) is carried out 12 days after the contamination, in comparison with the control plants.

[1] = assay type: physicochemical; settings: for chromatographic logP: pH 2.7
Septoria tritici = assay: In vivo preventive test on Septoria tritici (leaf spot on wheat); settings: 500 ppm; wheat plants sprayed 24 hours before contamination; grading 21 to 28 days after contamination vs control plants
Procedure, shortened: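 Scipion wheat at 1-leaf stage sprayed with compound, controls receiving acetone/tween/DMSO/water vehicle; 24 h later leaves inoculated with Septoria tritici spores (500 000 spores per ml). Efficacy (%) graded versus control plants 21 to 28 days after contamination.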

[2] = method [a]: HPLC/LC-MS on reversed phase at pH 2.7, 0.1% formic acid in water / acetonitrile, gradient 10% to 95% acetonitrile
[3] = HPLC on reversed phase columns, method [a]: pH 2.7, 0.1% formic acid in water / acetonitrile, linear gradient 10% to 95% acetonitrile
[4] = method [a]: HPLC/LC-MS on reversed phase at pH 2.7, 0.1% formic acid in water / acetonitrile, linear gradient 10% to 95% acetonitrile

SMILES	log P [1, 2]	log P [1, 3]	chromatographic logP [1]	Log P ([1]; method [a]: HPLC/LC-MS on reversed phase at pH 2.7, 0.1% formic acid in water and acetonitrile, linear gradient 10% to 95% acetonitrile)	log P [1, 4]	log P ([1]; HPLC on reversed phase columns, method [a]: pH 2.7, 0.1% formic acid in water and acetonitrile, linear gradient 10% to 95% acetonitrile)	% of efficacy (protection) (Botrytis cinerea) [%]	% of efficacy (protection) (Sphaerotheca fuliginea)	% of efficacy (protection) (Septoria tritici)
CCOC(=O)CC(C)NC(=O)C1(C)CC(c2ccc3ncc(Br)cc3c2)=NO1 (mixture of isomers) [compound 505]							75	98%	
C#Cc1cnc2c(Cl)cc(C3=NOC(C)(C(=O)NCCCOCC)C3)cc2c1 (racemic) [compound 545]		2.94[a]					100	100%	100%
CCOCCCNC(=O)C1(C)CC(c2cc(C)c3ncc(Br)cc3c2)=NO1 (racemic) [compound 547]		3.48[a]					100	100%	
CC(C)NC(=O)C1(C)CC(c2ccc3ncc(Cl)cc3c2)=NO1 (centres unmarked) [Compound No. 55]			2.61				99	94% and 98%	100%
CCc1cnc2ccc(C3=NOC(C)(C(=O)NC(C)C)C3)cc2c1 (centres unmarked) [Compound No. 259]			1.94				75	94%	100%
CCOCCCNC(=O)C1(C)CC(c2ccc3ncc(Br)cc3c2)=NO1 (centres unmarked) [compound 32]					2.69^[a]		98	100%	79% and 97%
COc1cnc2ccc(C3=NOC(C)(C(=O)NC(C)C)C3)cc2c1 (centres unmarked) [compound 53]					2.08^[a]		99	88%	97%
CCC1(C(=O)NC(C)C)CC(c2ccc3ncc(Br)cc3c2)=NO1 (centres unmarked) [compound 66]					3.13^[a]		100	98%	100%
CCOCCCNC(=O)C1(CC)CC(c2ccc3ncc(Br)cc3c2)=NO1 (centres unmarked) [compound 68]					3.11^[a]		98	98%	97%
C#Cc1cnc2ccc(C3=NOC(C)(C(=O)NCc4cccnc4)C3)cc2c1 (centres unmarked) [compound 103]					1.26^[a]		98	78%	75%
C#Cc1cnc2ccc(C3=NOC(C)(C(=O)NCC4COC(C)(C)O4)C3)cc2c1 (centres unmarked) [compound 125]					2.35^[a]		100	98%	100%
C#Cc1cnc2ccc(C3=NOC(C)(C(=O)NCc4cncn4C)C3)cc2c1 (centres unmarked) [compound 155]					1.91^[a]		100	89%	100%
C#Cc1cnc2ccc(C3=NOC(C)(C(=O)NCc4cnn(Cc5ccccc5)c4)C3)cc2c1 (centres unmarked) [compound 185]					2.64^[a]		95	78%	86%
CCn1cc(CNC(=O)C23CCCC2C(c2ccc4ncc(Br)cc4c2)=NO3)c(C)n1 (centres unmarked) [compound 261]		2.75^[a]						85%	97%
C#Cc1cnc2ccc(C3=NOC(C)(C(=O)NC4CC4)C3)cc2c1 (centres unmarked) [compound 314]		2.13[a]						81%	100%
C#Cc1cnc2ccc(C3=NOC(C)(C(=O)NCCCOCC(F)(F)F)C3)cc2c1 (centres unmarked) [compound 326]		2.77[a]						88%	98%
CC(NC(=O)C1(C)CC(c2ccc3ncc(Br)cc3c2)=NO1)C1CC1 (centres unmarked) [compound 332]		3.17[a]						98%	100%
C#CCONC(=O)C1(C)CC(c2ccc3ncc(C#C)cc3c2)=NO1 (centres unmarked) [compound 503]	1.95[a]							78%	71%
C=CC1(C(=O)NC(C)C)CC(c2ccc3ncc(I)cc3c2)=NO1 (centres unmarked) [compound 731]						3.21[a]		75%	100%

Further lines, with some results ahead:

log P [1, 2]	log P [1, 3]	chromatographic logP [1]	Log P ([1]; method [a]: HPLC/LC-MS on reversed phase at pH 2.7, 0.1% formic acid in water and acetonitrile, linear gradient 10% to 95% acetonitrile)	log P [1, 4]	log P ([1]; HPLC on reversed phase columns, method [a]: pH 2.7, 0.1% formic acid in water and acetonitrile, linear gradient 10% to 95% acetonitrile)	SMILES	% of efficacy (protection) (Botrytis cinerea) [%]	% of efficacy (protection) (Sphaerotheca fuliginea)	% of efficacy (protection) (Septoria tritici)
2.80[a]						CCOCCCNC(=O)C1(OC)CC(c2ccc3ncc(I)cc3c2)=NO1 (racemic) [compound 448]	98	100%	98%
	3.04[a]					C#Cc1cnc2c(C)cc(C3=NOC(C)(C(=O)NCCCOCC)C3)cc2c1 (racemic) [compound 546]	100	100%	83%
		2.88				CC(C)NC(=O)C1(C)CC(c2ccc3ncc(I)cc3c2)=NO1 (centres unmarked) [Compound No. 38, 3-(3-iodoquinolin-6-yl)-N-isopropyl-5-methyl-4,5-dihydro-1,2-oxazole-5-carboxamide]	100	97%	100%
			2.69^[a]			CCn1cc(CNC(=O)C2(C)CC(c3cc4cc(Br)cnc4c(F)c3F)=NO2)c(C)n1 (centres unmarked) [compound 17]	100	85%	100%
				2.31^[a]		CCn1cc(CNC(=O)C2(CF)CC(c3ccc4ncc(Br)cc4c3)=NO2)c(C)n1 (centres unmarked) [compound 75]	93	94% and 98%	
				2.58^[a]		C#Cc1cnc2ccc(C3=NOC(C)(C(=O)NC4CCC4)C3)cc2c1 (centres unmarked) [compound 120]	100	94%	100%
				2.17^[a]		C#Cc1cnc2ccc(C3=NOC(C)(C(=O)NCC4CCCO4)C3)cc2c1 (centres unmarked) [compound 132]	98	94%	100%
				2.07^[a]		Cn1cc(CNC(=O)C2(C)CC(c3ccc4ncc(Br)cc4c3)=NO2)cn1 (centres unmarked) [compound 176]		83%	93%
				2.92^[a]		C#Cc1cnc2ccc(C3=NOC(C)(C(=O)NC4CC4C4CC4)C3)cc2c1 (centres unmarked) [compound 216]	99	98%	100%
	3.11[a]					CC1(C(=O)NCCCOCC(F)(F)F)CC(c2ccc3ncc(Br)cc3c2)=NO1 (centres unmarked) [compound 323]		81%	78%
	2.28[a]					C#Cc1cnc2ccc(C3=NOC(C)(C(=O)NC(C)c4nccs4)C3)cc2c1 (centres unmarked) [compound 334]		94%	100%
	2.96[a]					C#Cc1cnc2ccc(C3=NOC(C)(C(=O)NC(C)c4ccsc4)C3)cc2c1 (centres unmarked) [compound 336]		81%	100%
	1.44[a]					CC(NC(=O)C1(C)CC(c2ccc3ncc(Br)cc3c2)=NO1)c1ccncc1 (centres unmarked) [compound 337]		88%	78%
	2.18[a]					C#Cc1cnc2ccc(C3=NOC(C)(C(=O)NC(C)C4CCOC4)C3)cc2c1 (centres unmarked) [compound 341]		98%	100%
	2.77[a]					C#Cc1cnc2ccc(C3=NOC(C)(C(=O)NC(C)C(F)(F)F)C3)cc2c1 (centres unmarked) [compound 343]		100%	100%
	3.13[a]					CC(NC(=O)C1(C)CC(c2ccc3ncc(Br)cc3c2)=NO1)C(F)(F)F (centres unmarked) [compound 345]		94%	100%
2.39[a]						C#Cc1cnc2ccc(C3=NOC(OC)(C(=O)NCCCOCC)C3)cc2c1 (centres unmarked) [compound 408]		100%	100%
	2.78[a]					CCn1cc(CNC(=O)C2(OC)CC(c3cc(Cl)c4ncc(Br)cc4c3)=NO2)c(C)n1 (centres unmarked) [compound 566]		89%	100%
